Drawing on US7541367B2, “3-benzoimidazolyl-pyrazolopyridines useful in treating kinase disorders” (Janssen Pharmaceutica, N.V., priority 2005, dated 2009), this text covers IC50 and Tumor volume for four molecules.

The target of one experiment is T1, c-Src kinase (Homo sapiens, UniProt P12931).
T1 construct: purchased Upstate Biotechnology, Lake Placid, N.Y
Description: c-Src Kinase Assay. Conditions: 5 μM ATP. The format is biochemical. The procedure, abridged: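 Human c-Src phosphorylated Cdc2 peptide (100 μM) […]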

Experiment [1] relates to HeLa cervical adenocarcinoma. Briefly: Cell Proliferation Inhibition Assay (14C-thymidine incorporation), HeLa.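 Further: test compound in DMSO added to cells seeded in scintillating 96-well plates, DMSO-only wells as control, uptake of methyl 14C-thymidine into new DNA counted.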 The format is cell-based. The settings on record: Homo sapiens, HeLa, HeLa cells.
The test system of the next experiment is HCT-116 colon carcinoma. Description: Cell Proliferation Inhibition Assay (14C-thymidine incorporation), HCT-116.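 Further: proliferation measured as methyl 14C-thymidine uptake into new DNA, counted in 96-well scintillating microplates, compared with DMSO-only control wells.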 The format is cell-based. Conditions: Homo sapiens, HCT-116, HCT-116 cells. (Incorporation of labelled thymidine or its analogues reports DNA synthesis.)
Experiment [2] has as its system Human melanoma A375 cells. Briefly: In Vivo Models - Inhibition of Tumor Growth (A375 xenograft). The settings on record: female athymic mice, 25 mg/kg i.p. daily. The procedure: The ability of test compounds to inhibit unregulated growth of human tumor cells in vivo was evaluated by implanting human tumor cells into the hindflank of athymic mice, administering a test compound and then quantifying any change in tumor size.
Certain compounds at particular doses produced adverse effects in this model. One skilled in the art would be able to establish the effective amount of compound required to achieve an effective therapeutic window.
Human melanoma A375 cells were implanted subcutaneously into the hindflank of female athymic mice (Charles River) and allowed to grow for 6-10 days. After a measurable tumor was established (as determined by baseline caliper measurement), the animal was administered an intraperitoneal (i.p.) dose of the test compound daily at 25 mg/kg for the length of the study. Tumor size was measured at certain intervals as shown in Table 5 and the degree of inhibition for a test compound was determined by comparing the reduction in tumor volume for drug-treated animals to that of untreated and vehicle-treated animals. The vehicle used was 20% hydroxypropyl β-cyclodextran.

In another experiment the test system is A375 malignant melanoma. Briefly: Cell Proliferation Inhibition Assay (14C-thymidine incorporation), A375.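 Further: proliferation measured by radiolabelled thymidine uptake into new DNA, counted in scintillating 96-well plates, compound-treated wells compared with DMSO-only control wells.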 It is filed as cell-based. The settings on record: Homo sapiens, A-375, A375 cells.
Another experiment deals with T2, HER2 (Homo sapiens, UniProt P04626).
T2 construct: GST (Glutathione-S-Transferase) (N); HIS6 (N); thrombin cleavage site (N); purchased Proqinase, Freiburg, Germany
Description: HER2 kinase screening assay (33P-ATP FlashPlate).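 Further: Biotin-poly(GT) 4:1 peptide captured on streptavidin FlashPlate, 33P transfer from γ-ATP read by scintillation counting, lower incorporation means inhibition, 1% DMSO final, 100 µL reaction.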 The format is biochemical. The settings on record: GST-HIS6 HER-2 aa 679 to 1255; 10 μM ATP; 1 hr at 30° C.

The target of another experiment is T3, VEGF-R2 (Rattus norvegicus, UniProt O08775).
T3 construct: polyhistidine (N)
Briefly: VEGF-R2 kinase screening assay (33P-ATP FlashPlate).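 Further: Read-out is ³³P incorporation from ³³P-γ-ATP into biotinylated peptide substrate captured on streptavidin FlashPlate, counted by scintillation, 1% DMSO final, inhibition scaled between per-plate maximum and minimum signals.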 It is filed as biochemical. Conditions: rat VEGF-R2 kinase domain; 10 μM ATP; 1 hr at 30° C.

Another experiment has as its target T4, Lyn kinase (Homo sapiens, UniProt P07948).
T4 construct: purchased Upstate Biotechnology, Lake Placid, N.Y
Description: Lyn Kinase Assay. It is filed as biochemical. The settings on record: 5 μM ATP. A digest of the protocol:
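Recombinant human Lyn kinase in pH 7.5 Tris buffer with EGTA, vanadate, β-mercaptoethanol and BSA reacted with compound for 40 min at 30° C. The radiolabelled product was captured on P30 filtermats after phosphoric acid stop and counted by scintillation. IC50 came from percent inhibition versus log concentration, using plate maximum/minimum signals.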

For the next experiment, the target named is T5, CDK1 (Homo sapiens, UniProt P06493).
T5 construct: purchased New England Biolabs, Beverly, Mass; 6020; host or cells: insect cells
Description: CDK-1 kinase screening assay (33P-ATP FlashPlate). It is filed as biochemical. The settings on record: human CDK1 with cyclin B; 10 μM ATP; 1 hr at 30° C.

For a further experiment, the target named is T6, Aurora-A (Mus musculus, UniProt P97477).
T6 construct: polyhistidine (N)
T6 sequence (P97477 1-395): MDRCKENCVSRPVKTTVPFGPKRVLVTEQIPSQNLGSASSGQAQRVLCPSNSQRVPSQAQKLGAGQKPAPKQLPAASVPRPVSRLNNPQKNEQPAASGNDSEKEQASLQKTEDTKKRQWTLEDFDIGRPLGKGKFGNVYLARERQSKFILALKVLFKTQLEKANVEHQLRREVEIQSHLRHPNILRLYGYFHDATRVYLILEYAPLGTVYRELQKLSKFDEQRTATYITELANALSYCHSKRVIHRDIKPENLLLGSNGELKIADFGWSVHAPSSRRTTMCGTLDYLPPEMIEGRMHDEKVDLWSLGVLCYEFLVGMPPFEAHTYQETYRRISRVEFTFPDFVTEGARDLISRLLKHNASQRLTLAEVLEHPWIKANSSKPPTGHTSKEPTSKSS
Description: Aurora-A kinase screening assay (33P-ATP FlashPlate).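 Further: His-tagged mouse Aurora-A phosphorylating a biotinylated peptide captured on streptavidin plates, read as 33P uptake by scintillation counting, 1% DMSO, inhibition scaled between per-plate maximum and minimum signals.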 The settings on record: 10 μM ATP, 1 hr at 30° C. The format is biochemical.

T3 sequence (O08775 786-1343): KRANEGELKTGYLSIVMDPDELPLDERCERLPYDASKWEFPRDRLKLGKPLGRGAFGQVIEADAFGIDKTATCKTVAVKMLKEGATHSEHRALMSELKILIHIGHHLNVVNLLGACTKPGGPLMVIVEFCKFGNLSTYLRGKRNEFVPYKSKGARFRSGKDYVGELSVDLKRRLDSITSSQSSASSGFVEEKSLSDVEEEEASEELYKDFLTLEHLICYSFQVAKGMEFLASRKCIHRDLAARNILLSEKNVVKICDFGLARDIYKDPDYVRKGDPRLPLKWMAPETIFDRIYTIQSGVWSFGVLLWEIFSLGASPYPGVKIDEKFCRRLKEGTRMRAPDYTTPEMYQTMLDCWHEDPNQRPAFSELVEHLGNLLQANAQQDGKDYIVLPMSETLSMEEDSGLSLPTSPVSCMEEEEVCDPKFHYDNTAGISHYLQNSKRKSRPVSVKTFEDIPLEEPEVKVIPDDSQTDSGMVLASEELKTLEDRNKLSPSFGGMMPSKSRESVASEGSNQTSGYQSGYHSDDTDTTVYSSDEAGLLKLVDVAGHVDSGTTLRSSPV
T2 sequence (P04626 679-1255): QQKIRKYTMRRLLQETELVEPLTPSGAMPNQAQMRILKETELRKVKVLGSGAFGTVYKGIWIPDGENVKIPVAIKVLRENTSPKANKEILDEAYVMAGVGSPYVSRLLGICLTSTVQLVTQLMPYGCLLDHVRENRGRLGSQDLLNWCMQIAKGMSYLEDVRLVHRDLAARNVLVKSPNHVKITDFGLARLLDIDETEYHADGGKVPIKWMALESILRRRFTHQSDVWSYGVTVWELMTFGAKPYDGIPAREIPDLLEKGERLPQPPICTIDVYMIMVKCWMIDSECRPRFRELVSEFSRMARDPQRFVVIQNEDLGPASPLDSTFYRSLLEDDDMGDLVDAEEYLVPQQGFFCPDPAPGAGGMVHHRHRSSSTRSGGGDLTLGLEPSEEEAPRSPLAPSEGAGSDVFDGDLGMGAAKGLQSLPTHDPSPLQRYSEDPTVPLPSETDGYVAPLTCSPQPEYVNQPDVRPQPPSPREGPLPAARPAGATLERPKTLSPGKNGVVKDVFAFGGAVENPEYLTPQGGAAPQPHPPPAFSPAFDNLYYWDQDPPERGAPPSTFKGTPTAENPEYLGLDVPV
T5 sequence (P06493 whole entry): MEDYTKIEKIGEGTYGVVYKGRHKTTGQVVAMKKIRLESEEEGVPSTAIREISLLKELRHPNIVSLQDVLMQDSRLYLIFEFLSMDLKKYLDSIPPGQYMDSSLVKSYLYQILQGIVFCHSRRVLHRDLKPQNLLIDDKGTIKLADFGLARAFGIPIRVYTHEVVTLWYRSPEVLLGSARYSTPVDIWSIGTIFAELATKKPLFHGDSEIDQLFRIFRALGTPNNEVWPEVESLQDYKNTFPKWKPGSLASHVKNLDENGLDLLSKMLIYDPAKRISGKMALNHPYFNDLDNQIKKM
T5 sequence (P14635 whole entry partner): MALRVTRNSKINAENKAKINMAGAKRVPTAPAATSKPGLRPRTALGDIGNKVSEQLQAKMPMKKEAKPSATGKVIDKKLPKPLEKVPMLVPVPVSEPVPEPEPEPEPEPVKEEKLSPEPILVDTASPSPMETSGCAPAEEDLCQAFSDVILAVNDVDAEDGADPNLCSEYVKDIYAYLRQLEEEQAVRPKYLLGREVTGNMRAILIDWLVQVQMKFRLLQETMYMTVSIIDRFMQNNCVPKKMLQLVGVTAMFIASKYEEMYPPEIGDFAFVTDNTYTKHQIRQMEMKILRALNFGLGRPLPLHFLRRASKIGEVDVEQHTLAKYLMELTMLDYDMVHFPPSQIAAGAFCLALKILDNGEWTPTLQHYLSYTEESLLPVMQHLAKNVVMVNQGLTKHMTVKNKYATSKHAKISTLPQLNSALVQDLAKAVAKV
T4 sequence (P07948 whole entry): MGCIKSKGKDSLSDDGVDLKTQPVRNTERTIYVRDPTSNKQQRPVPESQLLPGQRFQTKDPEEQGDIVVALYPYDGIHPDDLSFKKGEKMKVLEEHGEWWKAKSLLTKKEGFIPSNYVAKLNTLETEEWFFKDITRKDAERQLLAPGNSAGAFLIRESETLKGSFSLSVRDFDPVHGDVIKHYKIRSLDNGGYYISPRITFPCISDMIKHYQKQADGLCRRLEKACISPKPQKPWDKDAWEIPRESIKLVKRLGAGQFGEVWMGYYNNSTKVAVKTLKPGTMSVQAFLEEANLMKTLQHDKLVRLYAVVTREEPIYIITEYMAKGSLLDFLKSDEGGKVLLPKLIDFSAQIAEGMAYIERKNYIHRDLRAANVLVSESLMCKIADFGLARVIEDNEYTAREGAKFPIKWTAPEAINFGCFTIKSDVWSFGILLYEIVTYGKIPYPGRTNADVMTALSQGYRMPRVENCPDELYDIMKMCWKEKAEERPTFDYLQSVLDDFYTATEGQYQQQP
T1 sequence (P12931 whole entry): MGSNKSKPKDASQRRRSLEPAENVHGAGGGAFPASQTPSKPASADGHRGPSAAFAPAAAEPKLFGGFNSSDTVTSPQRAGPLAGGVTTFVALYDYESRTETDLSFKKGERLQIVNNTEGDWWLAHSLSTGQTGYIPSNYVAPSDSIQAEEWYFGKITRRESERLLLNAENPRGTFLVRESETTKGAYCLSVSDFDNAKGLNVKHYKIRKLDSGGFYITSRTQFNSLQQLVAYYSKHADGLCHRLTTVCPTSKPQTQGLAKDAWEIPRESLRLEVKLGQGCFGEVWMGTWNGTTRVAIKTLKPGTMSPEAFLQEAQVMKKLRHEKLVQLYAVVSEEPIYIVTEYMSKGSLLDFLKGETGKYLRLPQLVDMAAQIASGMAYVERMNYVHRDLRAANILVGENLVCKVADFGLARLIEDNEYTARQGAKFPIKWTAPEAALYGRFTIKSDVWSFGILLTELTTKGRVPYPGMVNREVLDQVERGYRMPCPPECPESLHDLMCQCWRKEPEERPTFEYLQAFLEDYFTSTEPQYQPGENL

By IC50 is commonly meant the midpoint of a concentration-inhibition curve. Turning to `CCNCc1cncc(-c2cnc3[nH]nc(-c4nc5cc(N6CCN(C)CC6)ccc5[nH]4)c3c2)c1` [Cpd 82, ethyl-(5-{3-[5-(4-methyl-piperazin-1-yl)-1H-benzoimidazol-2-yl]-1H-pyrazolo[3,4-b]pyridin-5-yl}-pyridin-3-ylmethyl)-amine], the half-maximal inhibitory concentration (IC50) against c-Src kinase amounted to 0.712 µM; in experiment [1], 0.474 µM; in the experiment with HCT-116 colon carcinoma, 0.543 µM; in the experiment with A375 malignant melanoma, 0.627 µM; against HER2, 1.07 µM; against VEGF-R2, 0.025 µM. Moreover, the IC50 on Lyn kinase was 0.415 µM; at CDK1, 0.00305 µM; at Aurora-A, 0.283 µM. For the same molecule, the Tumor volume in experiment [2] (Day 1) is reported as 97.7 mm^3; in experiment [2] (Day 4), 222 mm^3; in experiment [2] (Day 8), 455.5 mm^3; in experiment [2] (Day 11), 742.4 mm^3; in experiment [2] (Day 14), 1323.6 mm^3.
For `CCNCc1cncc(-c2cnc3[nH]nc(-c4nc5ccc(F)cc5[nH]4)c3c2)c1` [Cpd 106, ethyl-{5-[3-(6-fluoro-1H-benzoimidazol-2-yl)-1H-pyrazolo[3,4-b]pyridin-5-yl]-pyridin-3-ylmethyl}-amine], the IC50 stood at 0.0586 µM in experiment [1]; 0.0937 µM in the experiment with HCT-116 colon carcinoma; 0.0512 µM with A375 malignant melanoma; 5.12 µM against HER2; 0.154 µM against VEGF-R2; 0.0007 µM against CDK1. The molecule further gave an IC50 against Aurora-A of 0.803 µM. Moreover, the Tumor volume is 95.4 mm^3 in [2] (Day 1); 94.7 mm^3 in [2] (Day 4); 318.6 mm^3 in experiment [2] (Day 8); 558.3 mm^3 in [2] (Day 11); 896.8 mm^3 in experiment [2] (Day 14).
In the case of `CCCNCc1cncc(-c2cnc3[nH]nc(-c4nc5c(COC)cccc5[nH]4)c3c2)c1` [Cpd 78, {5-[3-(4-methoxymethyl-1H-benzoimidazol-2-yl)-1H-pyrazolo[3,4-b]pyridin-5-yl]-pyridin-3-ylmethyl}-propyl-amine], the Tumor volume in experiment [2] (Day 1) is on record as 95.4 mm^3; in experiment [2] (Day 4), 113.6 mm^3; in experiment [2] (Day 8) it was 329.3 mm^3; in [2] (Day 11) it was 558 mm^3; in [2] (Day 14), 856.9 mm^3. The IC50 against CDK1 was 0.0074 µM; on Aurora-A it was 3.99 µM.
Regarding `CCNCc1cncc(-c2cnc3[nH]nc(-c4nc5cc(F)c(F)cc5[nH]4)c3c2)c1` [Cpd 107, {5-[3-(5,6-difluoro-1H-benzoimidazol-2-yl)-1H-pyrazolo[3,4-b]pyridin-5-yl]-pyridin-3-ylmethyl}-ethyl-amine], the concentration for half-maximal inhibition (IC50) in experiment [1] was 0.138 µM; in the experiment on HCT-116 colon carcinoma, 0.0947 µM; with A375 malignant melanoma, 0.0461 µM; against HER2 it was 3.6 µM; on VEGF-R2 it was roughly 0.1 µM; against CDK1, 0.0011 µM. Further, the IC50 at Aurora-A is greater than 1 µM. Moreover, in experiment [2] (Day 1), the Tumor volume is reported as 95.4 mm^3.
